Activity calls are given as the source filed them. The rule behind the calls is not given here.
Test system: CCRIS mutagenicity, Ames/micronucleus/aberration tests
Experiment: CCRIS mutagenicity studies
[1] = Test System: AMES SALMONELLA TYPHIMURIUM, Strain/Indicator: TA97, Metabolic Activation: NONE, Method: STANDARD PLATE
[2] = Test System: AMES SALMONELLA TYPHIMURIUM, Strain/Indicator: TA97, Metabolic Activation: RAT, LIVER, S-9, AROCLOR 1254, Method: STANDARD PLATE
[3] = Test System: AMES SALMONELLA TYPHIMURIUM, Strain/Indicator: TA98, Metabolic Activation: NONE, Method: STANDARD PLATE
[4] = Test System: AMES SALMONELLA TYPHIMURIUM, Strain/Indicator: TA98, Metabolic Activation: RAT, LIVER, S-9, AROCLOR 1254, Method: STANDARD PLATE
[5] = Test System: AMES SALMONELLA TYPHIMURIUM, Strain/Indicator: TA100, Metabolic Activation: NONE, Method: STANDARD PLATE
[6] = Test System: AMES SALMONELLA TYPHIMURIUM, Strain/Indicator: TA100, Metabolic Activation: RAT, LIVER, S-9, AROCLOR 1254, Method: STANDARD PLATE
[7] = Test System: AMES SALMONELLA TYPHIMURIUM, Strain/Indicator: TA102, Metabolic Activation: RAT, LIVER, S-9, AROCLOR 1254, Method: STANDARD PLATE
[8] = Test System: AMES SALMONELLA TYPHIMURIUM, Strain/Indicator: TA1535, Metabolic Activation: NONE, Method: STANDARD PLATE
[9] = Test System: AMES SALMONELLA TYPHIMURIUM, Strain/Indicator: TA98, Metabolic Activation: NONE, Method: PREINCUBATION
[10] = Test System: AMES SALMONELLA TYPHIMURIUM, Strain/Indicator: TA100, Metabolic Activation: NONE, Method: PREINCUBATION

NCCNc1cccc2ccccc12
mutagenic call (Test System: CHINESE HAMSTER OVARY, Strain/Indicator: CHO-K1-BH4 (HGPRT)/6-THIOGUANINE, Metabolic Activation: NONE): inactive; negative
mutagenic call (Test System: CHINESE HAMSTER OVARY, Strain/Indicator: CHO-K1-BH4 (HGPRT)/6-THIOGUANINE, Metabolic Activation: S-9): inactive; negative

COC(=O)COc1ccc(Cl)cc1Cl
mutagenic call [1]: inactive; negative
mutagenic call [2]: inactive; negative
mutagenic call [3]: inactive; negative
mutagenic call [4]: inactive; negative
mutagenic call [5]: inactive; negative
mutagenic call [6]: inactive; negative
mutagenic call (Test System: AMES SALMONELLA TYPHIMURIUM, Strain/Indicator: TA102, Metabolic Activation: NONE, Method: STANDARD PLATE): inactive; negative
mutagenic call [7]: inactive; negative

CS(=O)(=O)OCCCCOS(C)(=O)=O
mutagenic call [3]: inactive; negative
mutagenic call (Test System: AMES SALMONELLA TYPHIMURIUM, Strain/Indicator: TA98, Metabolic Activation: S-9, Method: STANDARD PLATE): inactive; negative
mutagenic call [5]: inactive; negative
mutagenic call (Test System: AMES SALMONELLA TYPHIMURIUM, Strain/Indicator: TA100, Metabolic Activation: S-9, Method: STANDARD PLATE): active; positive
mutagenic call (Test System: AMES SALMONELLA TYPHIMURIUM, Strain/Indicator: TA1537, Metabolic Activation: S-9, Method: STANDARD PLATE): inactive; negative
mutagenic call (Test System: E. COLI, Strain/Indicator: WP2 (HCR), Metabolic Activation: NONE, Method: STANDARD PLATE): inactive; negative
mutagenic call (Test System: E. COLI, Strain/Indicator: WP2 (HCR), Metabolic Activation: S-9, Method: STANDARD PLATE): active; positive
mutagenic call (Test System: MOUSE LYMPHOMA, Strain/Indicator: L5178Y (TK+/TK-), Metabolic Activation: NONE, Method: SUSPENSION/PLATE): active; positive
mutagenic call (Test System: MOUSE LYMPHOMA, Strain/Indicator: L5178Y (TK+/TK-), Metabolic Activation: RAT, LIVER, S-9, AROCLOR 1254, Method: SUSPENSION/PLATE): active; positive

O=c1c2c(c3ccc4[nH]cccc4c3c1O)O2
mutagenic call [5]: inactive; negative

CC(C)(C)NC[C@@H](O)COc1ccccc1C1CCCC1
mutagenic call [3]: active; positive
mutagenic call [4]: active; positive

CCC1(c2ccccc2)C(=O)N=C(O)NC1=O (stereo not given)
mutagenic call [1]: inactive; negative
mutagenic call [2]: inactive; negative
mutagenic call [3]: inactive; negative
mutagenic call [4]: inactive; negative
mutagenic call [5]: inactive; negative
mutagenic call [6]: inactive; negative
mutagenic call [7]: inactive; negative
mutagenic call [8]: active; positive

CC1=C[C@H]2O[C@@H]3[C@H](O)C[C@](C)([C@@]2(CO)[C@H](O)C1=O)[C@]31CO1
mutagenic call (End Point: IN VITRO CHROMOSOMAL ABERRATIONS, Test System: CHINESE HAMSTER V79 CELLS, Metabolic Activation: NONE): active; positive (structural changes)
mutagenic call [3]: inactive; negative
mutagenic call (Test System: AMES SALMONELLA TYPHIMURIUM, Strain/Indicator: TA98, Metabolic Activation: RAT LIVER S-9, DELOR 103, Method: STANDARD PLATE): inactive; negative
mutagenic call [4]: inactive; negative
mutagenic call [5]: inactive; negative
mutagenic call (Test System: AMES SALMONELLA TYPHIMURIUM, Strain/Indicator: TA100, Metabolic Activation: RAT LIVER S-9, DELOR 103, Method: STANDARD PLATE): inactive; negative
mutagenic call [6]: inactive; negative

O=[N+]([O-])C(Br)(Br)Br
mutagenic call [9]: inactive; negative
mutagenic call (Test System: AMES SALMONELLA TYPHIMURIUM, Strain/Indicator: TA100, Metabolic Activation: HAMSTER, LIVER, S-9, AROCLOR 1254 (5%), Method: PREINCUBATION): inactive; negative
mutagenic call (Test System: AMES SALMONELLA TYPHIMURIUM, Strain/Indicator: TA100, Metabolic Activation: HAMSTER, LIVER, S-9, AROCLOR 1254 (10 OR 30%), Method: PREINCUBATION): inactive; negative
mutagenic call (Test System: AMES SALMONELLA TYPHIMURIUM, Strain/Indicator: TA100, Metabolic Activation: HAMSTER, LIVER, S-9, AROCLOR 1254 (30%), Method: PREINCUBATION): active; positive
mutagenic call [10]: inactive; negative
mutagenic call (Test System: AMES SALMONELLA TYPHIMURIUM, Strain/Indicator: TA100, Metabolic Activation: RAT, LIVER, S-9, AROCLOR 1254 (5%), Method: PREINCUBATION): inactive; negative
mutagenic call (Test System: AMES SALMONELLA TYPHIMURIUM, Strain/Indicator: TA100, Metabolic Activation: RAT, LIVER, S-9, AROCLOR 1254 (10%), Method: PREINCUBATION): inactive; negative
mutagenic call (Test System: AMES SALMONELLA TYPHIMURIUM, Strain/Indicator: TA1535, Metabolic Activation: RAT, LIVER, S-9, AROCLOR 1254 (5%), Method: PREINCUBATION): inactive; negative
mutagenic call (Test System: Ames Salmonella typhimurium, Strain/Indicator: RSJ100, Metabolic Activation: None, Method: Standard plate): inactive; negative
mutagenic call (Test System: Ames Salmonella typhimurium, Strain/Indicator: RSJ 100, Metabolic Activation: Rat, Liver, S-9, Aroclor, Method: Standard plate): inactive; negative
mutagenic call (Test System: Ames Salmonella typhimurium, Strain/Indicator: RSJ100, Metabolic Activation: Rat, Liver, S-9, Aroclor, Method: Standard plate): inactive; negative
mutagenic call (Test System: Ames Salmonella typhimurium, Strain/Indicator: TA98, Metabolic Activation: None, Method: Standard plate): inactive; negative
mutagenic call (Test System: Ames Salmonella typhimurium, Strain/Indicator: TA98, Metabolic Activation: Rat, Liver, S-9, Aroclor, Method: Standard plate): inactive; negative
mutagenic call (Test System: Ames Salmonella typhimurium, Strain/Indicator: TA100, Metabolic Activation: None, Method: Standard plate): inactive; negative
mutagenic call (Test System: Ames Salmonella typhimurium, Strain/Indicator: TA100, Metabolic Activation: Rat, Liver, S-9, Aroclor, Method: Standard plate): inactive; negative
mutagenic call (Test System: Ames Salmonella typhimurium, Strain/Indicator: TA104, Metabolic Activation: None, Method: Standard plate): inactive; negative
mutagenic call (Test System: Ames Salmonella typhimurium, Strain/Indicator: TA104, Metabolic Activation: Rat, Liver, S-9, Aroclor, Method: Standard plate): inactive; negative
mutagenic call (Test System: Ames Salmonella typhimurium, Strain/Indicator: TPT100, Metabolic Activation: None, Method: Standard plate): inactive; negative

CCCCCCCCCCCCCCCCCCO
mutagenic call [3]: inactive; negative
mutagenic call [4]: inactive; negative
mutagenic call [5]: inactive; negative
mutagenic call [6]: inactive; negative
mutagenic call [8]: inactive; negative
mutagenic call (Test System: AMES SALMONELLA TYPHIMURIUM, Strain/Indicator: TA1535, Metabolic Activation: RAT, LIVER, S-9, AROCLOR 1254, Method: STANDARD PLATE): inactive; negative
mutagenic call (Test System: AMES SALMONELLA TYPHIMURIUM, Strain/Indicator: TA1537, Metabolic Activation: NONE, Method: STANDARD PLATE): inactive; negative
mutagenic call (Test System: AMES SALMONELLA TYPHIMURIUM, Strain/Indicator: TA1537, Metabolic Activation: RAT, LIVER, S-9, AROCLOR 1254, Method: STANDARD PLATE): inactive; negative
mutagenic call (Test System: AMES SALMONELLA TYPHIMURIUM, Strain/Indicator: TA1538, Metabolic Activation: NONE, Method: STANDARD PLATE): inactive; negative
mutagenic call (Test System: AMES SALMONELLA TYPHIMURIUM, Strain/Indicator: TA1538, Metabolic Activation: RAT, LIVER, S-9, AROCLOR 1254, Method: STANDARD PLATE): inactive; negative
mutagenic call (Test System: E. COLI, Strain/Indicator: WP2, Metabolic Activation: NONE, Method: STANDARD PLATE): inactive; negative
mutagenic call (Test System: E. COLI, Strain/Indicator: WP2, Metabolic Activation: RAT, LIVER, S-9, AROCLOR 1254, Method: STANDARD PLATE): inactive; negative

O=NN1CCSC1[C@H](O)[C@@H](O)[C@@H](O)CO (stereo not given in full)
mutagenic call [9]: inactive; negative
mutagenic call [3]: inactive; negative
mutagenic call (Test System: AMES SALMONELLA TYPHIMURIUM, Strain/Indicator: TA98, Metabolic Activation: RAT, LIVER, S-9, AROCLOR 1254, Method: PREINCUBATION): inactive; negative
mutagenic call [4]: inactive; negative
mutagenic call [10]: inactive; negative
mutagenic call [5]: inactive; negative
mutagenic call (Test System: AMES SALMONELLA TYPHIMURIUM, Strain/Indicator: TA100, Metabolic Activation: RAT, LIVER, S-9, AROCLOR 1254, Method: PREINCUBATION): inactive; negative
mutagenic call [6]: inactive; negative

— PubChem BioAssay AID1259407 (Chemical Carcinogenesis Research Information System (CCRIS), 2018)
